According to ChEMBL document CHEMBL1151116, “In vitro study of the anticholinergic and antihistaminic activities of protopine and some derivatives” (J Nat Prod, 1988):

Tests used:
Ileum [1] = assay: Inhibition of acetylcholine-induced contraction in guinea pig ileum at 0.28 to 2.8 uM preincubated for 5 mins before acetylcholine challenge; format: functional, Cavia porcellus; design: scale not given: the % may be the effect or the level left
Ileum [2] = assay: Inhibition of acetylcholine-induced contraction in guinea pig ileum preincubated for 5 mins before acetylcholine challenge; format: functional, tissue-based, Cavia porcellus

## C[N+]1([O-])CCc2cc3c(cc2C(=O)Cc2ccc4c(c2C1)OCO4)OCO3 (stereo not drawn)
Ileum [1]
  Activity: 20%

## CN1[C@@H]2CC[C@H]1C[C@@H](OC(=O)C(CO)c1ccccc1)C2 (stereo partly drawn) [ATROPINE]
Ileum [2]; Cavia porcellus, Ileum, read-out: pA2 (converted)
  Kb: 2.04 nM

## COc1ccc(Cc2nccc3cc(OC)c(OC)cc23)cc1OC [PAPAVERINE]
Ileum [2]
  pD2: 5.08
